Source: patent US8962600B2, “Neuroprotective compounds and their use” (The Medical College of Wisconsin, Inc., priority 2009, dated 2015)

Columns and labels:
Type in all cases: cell-based, mouse
[1] = system: p67phox; assay: LPS-induced p67phox protein expression in BV2 cells, Western blot; settings: diapocynin 10 μM 30 min pretreatment, LPS 1 μg/ml 24 hr, back to basal level or below
Method: (§1) Two cell models of neuroinflammation were used to evaluate the anti-neuroinflammatory property of diapocynin including the mouse BV2 microglial cell line, as well as primary microglia isolated from mouse brains. BV2 cells were obtained from the American Tissue Culture Collection. BV2 cells were maintained in RPMI containing 10% FBS and 100 units of pen/strep at 37° C. and 5% CO2. For treatments, RPMI containing 2% FBS and 100 units of pen/strep was used.
BV2 cell lysates containing equal amounts of protein were loaded in each lane and separated on a 10% SDS-PAGE gel. After separation, the protein was transferred to a nitrocellulose membrane. Non-specific binding sites were blocked with Li-cor blocking buffer for 45 min. The membranes were then treated with primary antibodies directed against NOS2 (mouse monoclonal 1:200) and p67phox (rabbit polyclonal 1:200). To confirm equal amounts of protein were loaded, membranes were also probed for β-actin with a β-actin antibody (dilution of 1:10,000). Secondary antibodies, donkey anti-mouse (Invitrogen) and conjugated anti-rabbit IgG (Rockland), were used at a dilution of 1:10,000 for 1 hr at room temperature. The membranes were imaged and captured using a Li-COR Odyssey infrared imaging system and software.

[2] = system: BV2 microglial cells; assay: LPS-induced iNOS activation (nitrite, Griess reagent) in BV2 microglial cells; settings: 30 min pretreatment
Method: as §1
Inducible nitric oxide synthase (iNOS or NOS2) activation was assessed by measuring nitrite levels using Griess reagent in a 96-well format (70-72). Each well contained 40,000 BV2 cells or 100,000 primary microglia. BV2 cells were cultured in 150 μl of RPMI containing 10% FBS and pen/strep, and the primary microglia were cultured in DMEM-F12 containing 10% FBS, pen/strep, sodium pyruvate (S/P), Q, and NEAAs. One day after culturing, cells were replaced with 150 μl of their respective complete media containing only 2% FBS. Both cell types were pretreated with diapocynin (10 μM) and apocynin (100 μM) for 30 min before LPS stimulation (1 μg/ml LPS for BV2 cells and 100 ng/ml for primary microglia), and the plates were incubated at 37° C. After 24 hr at 37° C., 100 μl of supernatant were removed and placed into a new 96 well plate, to which 100 μl of Griess reagent were added. The plate was shaken on a plate shaker for 10 min before being read in a plate reader at 540 nm.
This example generally followed the cell culture, treatment, and analysis steps of Example 4 above.
Diapocynin diacetate (diapodiacetate or diapo diace) suppresses LPS-induced NOS-2 in BV2 microglial cells (FIG. 21). BV-2 cells were plated in 96 well plates, 40,000 cells per well, and treated in 150 μl of RPMI containing 2% heat inactivated FBS and penicillin/streptomycin. Diapo diacetate was used on the cells as a 30 min pretreatment, then LPS (1 μg/ml) was added. All treatments were allowed to incubate at 37° C. for 24 hr, starting from the addition of LPS. One hundred microliter aliquots of supernatant from each well were combined with 100 μl of Griess reagent (Sigma) in a 96-well plate and allowed to shake for 10 minutes before being read on the plate reader. The percent nitrite level for the treatments compared to the control was graphed.

[3] = system: TNF-α; assay: LPS-induced TNF-α release in primary microglia, LUMINEX immunoassay; settings: diapocynin 10 μM, LPS 24 hr
Method: Primary microglia were obtained from 1-2 day old C57/b16 mouse pups. Upon collection, whole brains were kept in ice-cold DMEM-F12 medium containing 10% FBS, 1× sodium pyruvate, 1× NEAAs, 100 units pen/strep, and Q. After collection, the brains were placed in 0.25% trypsin-EDTA and incubated at 37° C., with gentle shaking every 5-10 min. After 30 min, the trypsin was removed, and the brains are washed in warmed medium twice. After washing, medium was added to the brains, and the brains were homogenized using gentle pipetting, starting with a 25 ml pipette and moving to smaller pipette tips as the brains were broken up. When the brains were sufficiently homogenized to a single-cell suspension, they were filtered with a 70 μm nylon filter, which allowed microglia and astrocytes to be collected. The resultant cell suspension was plated in T-75 flasks and allowed to grow for 12-14 days at 37° C., 5% CO2. […]
Cytokine levels of BV2 and microglial cells treated with diapocynin were determined by LUMINEX® multiplex immunoassay. […]
Cytokine standards and controls were adjusted to 40 μl volume and the LUMINEX® Samples were run on a LUMINEX® 200 Total System and analyzed with Multiplex Analysis—LUMINEX® Software (Invitrogen, Carlsbad, Calif.).

COc1cc(C(C)=O)cc(-c2cc(C(C)=O)cc(OC)c2O)c1O [diapocynin]
reducing LPS-induced p67phox protein expression [1]: extremely effective | attenuating LPS-induced iNOS activation, compared with apocynin 100 μM ([2]; BV2 cells, diapocynin 10 μM, LPS 1 μg/ml 24 hr): just as effective | EC50 ([2]; Mus musculus, BV-2 cells, LPS 1 μg/ml, Griess reagent, non-linear regression of dose response curve, read-out: EC50, block of LPS-induced iNOS activation (nitrite level)): 7.76 µM | blocking LPS-induced release of TNF-α [3]: very effective
